In patent publication US7244438B2, “Uses for polycationic compounds” (Intercell AG, priority 2001, dated 2007):
Where no end group is shown, it is not given here.

What was measured:
human dendritic cells = assay: Polyinosinic-polycytidylic acid-induced cytokine production by human dendritic cells; format: cell-based; conditions: human dendritic cells in vitro
[1] = tested on: mouse bone marrow-derived CD11c+ dendritic cells; assay: Cytokine production by dendritic cells incubated with poly-L-arginine and/or CpG-ODN (example 5); format: cell-based; conditions: CD11c+ dendritic cells incubated in vitro
Protocol: In parallel, in vitro studies were performed to clarify whether the complexation of CpG-ODN by poly-L-arginine can also directly influence the stimulation of mouse bone marrow-derived CD11c^+ dendritic cells by CpG-ODN concerning the production of TNF-α and IL-6. For this purpose, CD11c^+ dendritic cells were incubated either with poly-L-arginine, CpG-ODN or the combination of poly-L-arginine and CpG-ODN (example 5). The levels of TNF-a and IL-6 were determined in the supernatants derived from these cultures.

[2] = mouse, in vivo, sc
Protocol: In order to investigate this assumption, fluorescence-labeled compounds were injected together subcutaneously into the flank of mice. At different time points after this treatment, injection sites were inspected for the presence of labeled compounds.
Experimental Groups (1 Mouse/Group 1/Indicated Time Point, 3 Mice/Group 2–4/time Point) • 1. untreated • 2. TRP-2181-188-FITC • 3. pR60-TRITC • 4. CpG-ODN1668-Cy5 • 5. TRP-2-FITC+pR60-TRITC • 6. TRP-2181-188-FITC+CpG-ODN-Cy5 • 7. pR60-TRITC+CpG-ODN 1668-Cy5 • 8. TRP-2 181-188-FITC+pR 60-TRITC+CpG-ODN 1668-Cy5
On day 0 mice were injected subcutaneously into the right flank with a total volume of 100 μl containing the above mentioned compounds. Animals were sacrificed at day 4 after injection and photos were taken from the injection sites (FIG. 3).

Poly-L-Arginine
polyinosinic-polycytidylic acid-induced production of pro-inflammatory cytokines (human dendritic cells): inhibits
IL-6 in culture supernatants [1]: neither TNF-α nor IL-6 were detectable
TNF-α in culture supernatants [1]: neither TNF-α nor IL-6 were detectable

TRP-2181-188-peptide-FITC: FITC-labeled TRP-2-Peptide (VYDFFVWL), MHC class I (H-2Kb)-restricted epitope of mouse tyrosinase related protein-2 (not fully specified (N-terminus); also: FITC label; UniProt P29812 181-188, looked up, fragment)
TRP-2 peptide-FITC detectable at the injection site [2]: not detectable at the injection site at day 4
